How the values were obtained:
thymocytes = test: Concanavalin A stimulation of thymocytes, C1300 tumor bearing protein malnourished mice; type: in vivo, A/J mice; conditions: mean ± SD, * p<0.001, low protein diet + 1% supplement
Protocol: (§3) The effects of supplemental arginine (ARG) in the malnourished tumor bearing host were evaluated. […] Body weight, tumor weight and carcass weight were measured weekly and duration of survival was recorded. On day 10, specific T cell cytotoxicity was measured; concanavalin A (con A) stimulation of thymocytes and mixed lymphocyte tumor cell culture (MLTC) were measured on days 14 (d14) and 21(d21) (n=5/group).

C1300 neuroblastoma [1] = test: Mixed lymphocyte tumor cell culture (MLTC), C1300 tumor bearing protein malnourished mice; type: in vivo, A/J mice; conditions: for MLTC Stimulation Index (d21): day 21
Protocol: as §3

[2] = Body weight and carcass weight, C1300 tumor bearing protein malnourished mice; type: in vivo, A/J mice; conditions: for total body weight and mean carcass weight: compared with LPD mice
Protocol: as §3

C1300 neuroblastoma [3] = test: Tumor growth and survival, C1300 neuroblastoma in protein malnourished mice; type: in vivo, A/J mice; conditions: for median survival: ARG p<0.001 compared with GLY and LPD (LPD, 29 days)
Protocol: as §3

YAC targets = test: Basal and Poly I:C-induced natural killer (NK) activity, 4 hour chromium release, mice on dietary supplement; type: in vivo, CBA/J mice; conditions: for NK(Induced) activity (% toxicity): Poly I:C-induced, * p,0.05 (ARG); for NK(Induced) activity (% toxicity) / NK(basal) activity (% toxicity): 1% dietary supplementation at least 10 days, YAC targets, 4 hour chromium release
Protocol: (§1) The effect of arginine on IL-2 dependent responses is shown by the following example. The effect of arginine on two IL-2 - dependent responses (T cell activation and cytotoxic T lymphocyte (CTL) development)and on interferon-influenced natural killer (NK) cell activity was evaluated.
(§2) CBA/J mice (n=100) received 1% arginine (ARG) dietary supplementation o isonitrogenous glycine (GLY) for al least 10 days. CTL development was determined by sensitizing mice to BALB/C spleen cell alloantigen in vivo (×3 immunizations) and measuring cytotoxicity against allolymphoblasts as targets. Basal and Poly I:C - induced NK activity was measured against YAC targets. Using indirect immunofluorescence, IL-2 receptor expression (M7/20) on purified splenic T cells was determined 24 and 48 hours after con A activation. Results are presented in Table 1 wherein data are expressed as % toxicity in a 4 hour Chromium release assay (CTL and NK cells only) and % expression (IL-2). (*p,0.05 Student's T test)

allolymphoblasts = test: Cytotoxic T lymphocyte (CTL) development, 4 hour chromium release, mice on dietary supplement; type: in vivo, CBA/J mice; conditions: for CTL cytotoxicity (% toxicity): 1% dietary supplementation at least 10 days, 4 hour chromium release assay, * p,0.05 Student's t test (ARG)
Protocol: as §1, §2

C1300 neuroblastoma [4] = conditions: mouse, in vivo
Protocol: Body weight, tumor weight and carcass weight were measured weekly and duration of survival was recorded. On day 10, specific T cell cytotoxicity was measured; concanavalin A (con A) stimulation of thymocytes and mixed lymphocyte tumor cell culture (MLTC) were measured on days 14 (d14) and 21(d21) (n=5/group).

IL-2 receptor = IL-2 receptor expression (M7/20) on purified splenic T cells after con A activation, indirect immunofluorescence; type: in vivo, CBA/J mice; conditions: for IL 2 (24 hr) receptor expression (% expression): 24 hours after con A activation; for IL 2 (24 hr) receptor expression (% expression) / IL 2 (48 hr) receptor expression (% expression): * p,0.05 (ARG); for IL 2 (48 hr) receptor expression (% expression): 48 hours after con A activation
Protocol: as §1, §2

thymus = conditions: cited from earlier work
[5] = dietary supplement before and/or after wounding, rats; cited from earlier work
lymphocytes = conditions: in vitro incubation in media with higher amounts of arginine; cited from earlier work
[6] = test system: breast adenocarcinoma (C3HBA); conditions: rats; cited from earlier work
[7] = given prior to or concomitantly with amino acids, glycine or ammonia; rats; cited from earlier work
C3HBA tumors = conditions: supplemented after tumor excision, cited from earlier work
[8] = dietary arginine, young growing rat; cited from earlier work
[9] = humans, mainly liver disease; cited from earlier work
[10] = test system: peripheral blood lymphocyte; conditions: daily oral supplements (30 g), cited from earlier work
[11] = 30 g daily in divided doses for 1 week, human; cited from earlier work
[12] = intraperitoneal, after 24 hour starvation, rats; cited from earlier work
[13] = 1% in drinking water 6 days after the injury; cited from earlier work
[14] = mean ± SD, low protein diet + 1% supplement

NCC(=O)O [GLY, glycine, reference compound]
ConA Stimulation Index (d21) (thymocytes; day 21): 24.9 ± 5 | ConA Stimulation Index (thymocytes; first ConA column (d14 per text)): 38.4 ± 7 | MLTC Stimulation Index (d14) (C1300 neuroblastoma [1]; day 14, mean ± SD, * p<0.001, low protein diet + 1% supplement): 3.3 ± 0.9 | MLTC Stimulation Index (d21) (C1300 neuroblastoma [1]; [14]): 2.5 ± 0.8 | total body weight and mean carcass weight [2]: significantly preserved | median survival (C1300 neuroblastoma [3]): 30 days | NK(Induced) activity (% toxicity) (YAC targets): 24 ± 14% | NK(basal) activity (% toxicity) (YAC targets): 13 ± 4% | CTL cytotoxicity (% toxicity) (allolymphoblasts): 54 ± 14% | Cytotoxicity (C1300 neuroblastoma [4]): 15 ± 1.4% | IL 2 (24 hr) receptor expression (% expression) (IL-2 receptor): 30 ± 4% | IL 2 (48 hr) receptor expression (% expression) (IL-2 receptor): 46 ± 45%

N=C(N)NCCC[C@H](N)C(=O)O [ARG, arginine]
MLTC Stimulation Index (d21) (C1300 neuroblastoma [1]; [14]): 2.2 ± 1.3 | immune responses in tumor bearing protein malnourished mice (C1300 neuroblastoma [1]; supplemental ARG): augmented immune responses | lymphocyte content of the thymic glands (thymus; in vivo): significant increases | thymic involution with injury (thymus; injured): minimizes the thymic involution | blastogenesis of the lymphocytes in response to mitogens (thymus; thymic): significant enhancement | thymic weight (thymus; uninjured rats and mice): increases thymic weight | wound healing [5]: accelerated | total body weight and mean carcass weight [2]: significantly preserved | host nutritional status ([2]; supplemental ARG): preserved | median survival (C1300 neuroblastoma [3]): 38 days | median survival, in words (C1300 neuroblastoma [3]; p<0.001 compared with GLY and LPD mice): prolonged | tumor growth (C1300 neuroblastoma [3]; p<0.05, compared with GLY and LPD mice): retarded tumor growth | blastogenic responses in vitro (lymphocytes): does not lead to greater blastogenic responses | tumor appearance [6]: slowed tumor appearance | tumor incidence [6]: reducing tumor incidence | NK(Induced) activity (% toxicity) (YAC targets): 43 ± 12% | NK(basal) activity (% toxicity) (YAC targets): 19 ± 5% | inducible NK activity, in words (YAC targets; supplemental arginine): significantly augmented | protection against toxic effects of hyperammonemia [7]: abrogated | CTL cytotoxicity (% toxicity) (allolymphoblasts): 69 ± 15% | CTL activity, in words (allolymphoblasts; supplemental arginine): significantly augmented | survival time of mice which subsequently developed tumors (C3HBA tumors): prolonged survival time | tumor recurrence rate (C3HBA tumors; without supplement 100% recurrence): 30% | IL 2 (24 hr) receptor expression (% expression) (IL-2 receptor): 52 ± 4% | IL 2 (48 hr) receptor expression (% expression) (IL-2 receptor): 59 ± 6% | IL-2 receptor kinetics, in words (IL-2 receptor; supplemental arginine): enhanced | growth [8]: more rapid growth | therapeutic effect, elevated blood ammonia [9]: ranged from excellent to minimal

NC(=O)NCCC[C@H](N)C(=O)O [citrulline, reference compound]
protection against toxic effects of hyperammonemia [7]: share the "detoxifying" effects of arginine

Cl.N=C(N)NCCC[C@H](N)C(=O)O [arginine HCl]
peripheral blood lymphocyte blastogenesis ([10]; healthy volunteers): increased | time until blastogenesis effect is evident [10]: ≤ 3 days | untoward effects [11]: no untoward effects except for mild gastrointestinal discomfort | LD50 [12]: 3800 mg/kg | recovery [13]: 100% | weight loss after injury [13]: reversed the weight loss

Source: patent US4883661A, “Use of arginine as an lymphokine synergist” (priority 1987, dated 1989)
